How the values were obtained:
Assay type in all cases: ADME, organism-based, Cavia porcellus
Settings in all cases: in vivo
[1] = AUC (0 to infinity) in Hartley guinea pig at 1 mg/kg, iv administered as single dose; design: dose 1 mg/kg, route intravenous, time infinity
[2] = AUC (0 to infinity) in Hartley guinea pig at 10 mg/kg, po administered as single dose; design: dose 10 mg/kg, route oral, time infinity
[3] = Tmax in Hartley guinea pig at 10 mg/kg, po administered as single dose
[4] = Oral bioavailability in Hartley guinea pig at 10 mg/kg
[5] = Cmax in Hartley guinea pig at 10 mg/kg, po administered as single dose; design: dose 10 mg/kg, route oral
[6] = Cmax in Hartley guinea pig at 1 mg/kg, iv administered as single dose; design: dose 1 mg/kg, route intravenous
[7] = Tmax in Hartley guinea pig at 1 mg/kg, iv administered as single dose
[8] = Volume of distribution in Hartley guinea pig at 1 mg/kg, iv administered as single dose

`N#CCS(=O)(=O)N1CCN(c2ccc(OC[C@@H]3CO[C@@](Cn4ccnc4)(c4ccc(Cl)cc4Cl)O3)cc2)CC1` showed an AUC(0-inf) [1] of 1160 ng·h/mL, an AUC(0-inf) [2] of 4600 ng·h/mL and a Tmax [3] of 40.2 min. For the same molecule, the bioavailability [4] was 39.5%, the Cmax [5] was 1970 ng/mL and the Cmax [6] was 2090 ng/mL. It also gave a Tmax [7] of 4.8 min and a Vd [8] of 2.5 L/kg.

In the case of `CCS(=O)(=O)N1CCN(c2ccc(OC[C@@H]3CO[C@@](Cn4ccnc4)(c4ccc(Cl)cc4Cl)O3)cc2)CC1`, the AUC(0-inf) [1] is reported as 560 ng·h/mL, the AUC(0-inf) [2] is reported as 3710 ng·h/mL and the Tmax [3] is reported as 70.2 min. The bioavailability [4] was 61.4%, the Cmax [5] was 710 ng/mL and the Cmax [6] was 446 ng/mL. It also gave a Tmax [7] of 6 min and a Vd [8] of 4.4 L/kg.

Work on `CC(C)S(=O)(=O)N1CCN(c2ccc(OC[C@@H]3CO[C@@](Cn4ccnc4)(c4ccc(Cl)cc4Cl)O3)cc2)CC1` yielded an AUC(0-inf) [1] of 547 ng·h/mL, an AUC(0-inf) [2] of 571 ng·h/mL and a Tmax [3] of 40.2 min. The bioavailability [4] was 10.4%, the Cmax [5] was 358 ng/mL and the Cmax [6] was 534 ng/mL. The Tmax [7] was 11.4 min and the Vd [8] was 3 L/kg.

In the case of `O=S(=O)(C1CC1)N1CCN(c2ccc(OC[C@@H]3CO[C@@](Cn4ccnc4)(c4ccc(Cl)cc4Cl)O3)cc2)CC1`, the AUC(0-inf) [1] is reported as 715 ng·h/mL, the AUC(0-inf) [2] is reported as 7580 ng·h/mL and the Tmax [3] is reported as 90 min. For the same molecule, the bioavailability [4] was 98.5%, the Cmax [5] was 1560 ng/mL and the Cmax [6] was 514 ng/mL. It also gave a Tmax [7] of 4.8 min and a Vd [8] of 2.9 L/kg.

Source: ChEMBL document CHEMBL3867461, “Design, synthesis, and evaluation of (2S,4R)-Ketoconazole sulfonamide analogs as potential treatments for Metabolic Syndrome” (Bioorg Med Chem Lett, 2016)
